Source: US8273769B2, “Phenoxy acetic acid derivatives” (Merck Serono SA, priority 2009, dated 2012)

Tests used:
[1] = In vivo pharmacokinetic evaluation in rat; design: species or system Sprague Dawley male rats
Experimental: In order to study the pharmacokinetic (PK) profile of test compounds in vivo, Sprague Dawley male rats or C57BL/6 female mice were dosed intravenously or after oral gavage. For both species, test compounds were dosed in solution at 1 mg/kg for i.v. route (10% ethanol, 10% N,N-dimethylacetamide, 30% propylene glycol, 50% water, v/v) and in suspension at 5 mg/kg (0.5% carboxymethylcellulose suspension, containing 0.25% Tween 20 in water) for oral gavage. PK profile in rat was obtained from 3 animals per dosing route and mouse PK profile was determined from 3 animals for each time points. The volume of administration was 2 mL/kg for i.v. dosing in both species and either 5 mL/kg (rat) or 10 mL/kg (mouse) for oral gavage. Blood samples (100 μL/time point) were collected at 0.083 (5 min), 0.25, 0.5, 1, 4, 7 and 24 hours post-dose for i.v. dosing, and at 0.5, 1, 4, 7 and 24 h for oral dosing, into heparin-Li+ containing tubes. For rats, all blood samples were collected trough a catheter in the carotid artery (placed in the artery the day before the experiment), under light isoflurane anesthesia, and stored on ice until centrifugation and plasma isolation. […] For bioanalysis, samples were processed by protein precipitation (acetonitrile, formic acid 0.1%, addition of 3 volumes) after addition of one internal standard and analysed using a sensitive and selective LC/MS/MS method. An aliquot of the resulting supernatant was subject to LC/MS/MS analysis using a reverse phase column (Waters Xterra, C8, (3.5 μm particle size, 2.1×50 mm) and a short gradient (1 min) from (Solvent A) 85% water, 15% acetonitrile and 0.1% formic acid to (Solvent B) 90% acetonitrile, 10% water and 0.1% formic acid followed by isocratic conditions of Solvent B for 3.5 min at 0.4 mL/min. Column effluent was monitored using a Sciex API 4000 triple quadrupole mass spectrometer with a Turbo V electrospray ion source. Unknown concentrations of test compounds were determined using a calibration curve ranging from 1 to 3000 ng/mL.

[2] = tested on: FITC induced contact hypersensitivity in mice; test: FITC 1 week model (FITC induced contact hypersensitivity, ear swelling); format: in vivo, Balb/C mice; conditions: oral gavage, 24 h after challenge
From the text: Fluorescein isothiocyanate (FITC) induced contact hypersensitivity (CHS) is a commonly used model for atopic dermatitis (AD). The hapten FITC is a small molecule that is able to elicit an immune response only when attached to a larger carrier such as a protein. It is reactive towards e-amino groups (lysine). The immune response to FITC sensitization and challenge is Th2 cytokine driven (IL-4, IL-5, IL-6, IL-10 and IL-13) and associated with elevated serum IgE levels. The skin inflammation at the site of the challenge is characterized by edema and eosinophil infiltrations.
Female 9 week old Balb/C mice were sensitized on days 0 and 1 with 0.5% FITC in acetone/dibuthylphtalate (A/DBP). One group (sham) was sensitized with A/DBP alone. On day 6 all the mice including the sham group were challenged on the right ear (inner and outer surface) with 0.5% FITC in A/DBP. The mice were treated with the compounds via oral gavage 1 h before and 7 h after the challenge. The baseline ear thickness was measured before the challenge and 24 h after the challenge. At the end of the experiment (24 h after the challenge) the mice were sacrificed. Serum and plasma samples were taken. The challenged ear was excised and stored at −80° C. Compounds of Formula (I) of the present invention were tested at 3, 10 and 30 mg/Kg.

[3] = tested on: OVA-induced lung eosinophilia in mice; test: OVA-induced lung eosinophilia in mice; format: in vivo, BALB/c mice; conditions: BAL fluid, oral gavage
Experimental: BALB/c mice (6-8 weeks old) were immunized with ovalbumin (10 μg i.p) on day 0 and 7. In order to elicit a local inflammatory response in the lung, mice were challenged between day's 15-17 with a nebulised solution of ovalbumin (10 μg/ml; De Vilibiss Ultraneb 2000, once daily for 30 min during the 3 days). On each separate day between 15 and 17 each animal received via oral gavage the test compound, at t−1 h and t+7 h with respect to OVA exposure at t=0 h. Eight hours after the final OVA challenge, bronchoalveolar lavage (BAL) was then carried out. Total cell numbers in the BAL fluid samples were measured using a haemocytometer. Cytospin smears of the BAL fluid samples were prepared by centrifugation at 1200 rpm for 2 min at room temperature and stained using a DiffQuik stain system (Dade Behring) for differential cell counts. […]

| Oral bioavailability [1] [%] | Clearance iv (1 mg/Kg) ([1]; i.v. 1 mg/Kg) [mL/min/kg] | AUC ([1]; male, Sprague Dawley, plasma, oral gavage 5 mg/Kg) [ng·h/mL] | SMILES | % inhibition of ear swelling (mean ± s.e.m.) ([2]; dose 3 mg/kg) [%] | % inhibition of ear swelling (mean ± s.e.m.) ([2]; dose 10 mg/kg) [%] | % inhibition of ear swelling (mean ± s.e.m.) ([2]; dose 30 mg/kg) [%] | % inhibition eosinophils (mean ± s.e.m.) ([3]; dose 3 mg/kg) [%] | % inhibition total cells (mean ± s.e.m.) ([3]; dose 3 mg/kg) [%] | % inhibition eosinophils (mean ± s.e.m.) ([3]; dose 10 mg/kg) [%] | % inhibition total cells (mean ± s.e.m.) ([3]; dose 10 mg/kg) [%] | % inhibition eosinophils (mean ± s.e.m.) ([3]; dose 30 mg/kg) [%] | % inhibition total cells (mean ± s.e.m.) ([3]; dose 30 mg/kg) [%] |
| --- | --- | --- | --- | --- | --- | --- | --- | --- | --- | --- | --- | --- |
| 28 | 6.7 | 3700 | CCCS(=O)(=O)c1cccc(C#Cc2cc(Cl)ccc2OCC(=O)O)c1 [Example 17, (4-chloro-2-{[3-(propylsulfonyl)phenyl]ethynyl}phenoxy)acetic acid] |  |  |  |  |  |  |  |  |  |
|  |  |  | CCCS(=O)(=O)c1ccc(C)c(C#Cc2cc(Cl)ccc2OCC(=O)O)c1 [Example 38, (4-chloro-2-{[2-methyl-5-(propylsulfonyl)phenyl]ethynyl}phenoxy)acetic acid] | 23 ± 16 | 56 ± 12 | 52 ± 12 | 29 ± 14 | 21 ± 13 | 54 ± 16 | 42 ± 14 | 81 ± 7 | 67 ± 8 |
|  |  |  | CCCS(=O)(=O)c1ccc(F)c(C#Cc2cc(Cl)ccc2OCC(=O)O)c1 [Example 89, (4-chloro-2-{[2-fluoro-5-(propylsulfonyl)phenyl]ethynyl}phenoxy)acetic acid] | 36 ± 19 | 54 ± 16 | 48 ± 11 | 19 ± 18 | 12 ± 15 | 27 ± 10 | 19 ± 8 | 55 ± 11 | 44 ± 10 |
|  |  |  | O=C(O)COc1ccc(Cl)cc1C#Cc1ccc2c(c1)S(=O)(=O)c1ccccc1-2 [Example 154, {4-chloro-2-[(5,5-dioxidodibenzo[b,d]thien-3-yl)ethynyl]phenoxy}acetic acid] | 41 ± 9 | 49 ± 9 | 54 ± 17 |  |  |  |  |  |  |
